Test results published in ChEMBL document CHEMBL1152471 (2008).
Converted amounts (≈) assume the structure as drawn.

Tests used:
Format in all cases: functional
[1] = test system: Mycobacterium tuberculosis; test: Antituberculosis activity against linezolid-resistant Mycobacterium tuberculosis by bactec 460 TB method
[2] = test system: Mycobacterium tuberculosis; test: Antituberculosis activity against linezolid-resistant Mycobacterium tuberculosis by bactec MGIT 960 method
[3] = test system: Mycobacterium tuberculosis; test: Antituberculosis activity against linezolid-resistant Mycobacterium tuberculosis having mutation in 23S rRNA with identical G to T base pair exchange at position 2061
[4] = test system: Mycobacterium tuberculosis; test: Antituberculosis activity against linezolid-resistant Mycobacterium tuberculosis having mutation in 23S rRNA with G to T base pair exchange at position 2576
[5] = test system: Mycobacterium tuberculosis; test: Antituberculosis activity against linezolid-resistant Mycobacterium tuberculosis without mutation in 23S rRNA
[6] = test system: Mycobacterium tuberculosis; test: Antituberculosis activity against linezolid-resistant Mycobacterium tuberculosis having mutation in 23S rRNA with alteration in domain V

In the case of `CC(=O)NC[C@H]1CN(c2ccc(N3CCOCC3)c(F)c2)C(=O)O1` [LINEZOLID], the MIC [1] is reported as ≤ 1 µg/mL, the MIC [2] is reported as ≤ 1 µg/mL and the MIC [3] is reported as 32 µg/mL (≈ 94.9 µM). The MIC [4] was 16 µg/mL (≈ 47.4 µM), the MIC [5] was 4 µg/mL (≈ 11.9 µM) and the MIC [6] was “>=64 ug ml-1”.
